Assay results as given in patent publication US11596639B2, “Substituted indole Mcl-1 inhibitors” (Vanderbilt University, priority 2016, dated 2023).
Like-named read-outs stand apart in the source and are kept apart here.

What was measured:
[1] = tested on: H929 human cancer cell lines; experiment: Cellular viability / proliferation (Cell TiterGlo, 72 h); type: cell-based
Outline: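 1,000 cells/well, 10% FBS medium; compound added at 24 h, 2-fold dilutions from 50 μM top, DMSO <1% final. 72 h exposure, CellTiterGlo 30 min RT dark, luminescence read. IC50 by 4-parameter fit.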

Mcl-1 = Mcl-1 (Homo sapiens (Human), UniProt Q07820); experiment: Fluorescence polarization anisotropy (FPA) competition assay, FITC-Bak or FITC-Bim BH3 peptide; type: binding; settings: read-out: Ki for Inhibition of Mcl-1 by FPA assay
[2] = Homo sapiens, NCI-H929, 72 h, read-out: GI50 on cellular proliferation of H929 human cancer cell lines, H929 cells, 72 h, Cell TiterGlo, 10% FBS

Mcl-1, sequence (Q07820 172-327): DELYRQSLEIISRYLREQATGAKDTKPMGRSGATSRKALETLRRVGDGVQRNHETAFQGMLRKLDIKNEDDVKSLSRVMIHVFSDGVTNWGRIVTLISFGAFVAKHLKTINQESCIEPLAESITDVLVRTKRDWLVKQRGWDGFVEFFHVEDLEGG

SMILES	GI50 [1, 2] [µM]	Ki (Mcl-1) [µM]	GI50 ([1]; H929 cells, 72 h, Cell TiterGlo, 10% FBS, read-out: GI50 on cellular proliferation of H929 human cancer cell lines) [µM]
Cc1cc(OCCCc2c3n(c4c(-c5c(C)ncnc5C)c(Cl)ccc24)CCCN(c2cc(C(=O)O)c4cnn(C)c4c2)C3=O)cc(C)c1Cl [Example 155, 6-[8-Chloro-11-[3-(4-chloro-3,5-dimethyl-phenoxy)propyl]-7-(4,6-dimethylpyrimidin-5-yl)-1-oxo-4,5-dihydro-3H-[1,4]diazepino[1,2-a]indol-2-yl]-1-methyl-indazole-4-carboxylic acid]	1.4	< 0.001	–
Cc1cc(OCCCc2c3n(c4c(-c5c(C)nn(C)c5C)c(Cl)ccc24)[C@H](C)CN(c2cn(C)c4ccc(C(=O)NN)cc24)C3=O)cc(C)c1Cl [Example 366, (R)-3-(7-Chloro-10-(3-(4-chloro-3,5-dimethylphenoxy)propyl)-4-methyl-1-oxo-6-(1,3,5-trimethyl-1H-pyrazol-4-yl)-3,4-dihydropyrazino[1,2-a]indol-2(1H)-yl)-1-methyl-1H-indole-5-carbohydrazide]	0.44	0.0029	–
Cc1cc(N2C[C@@H](C)n3c(c(CCCOc4cc(C)c(Cl)c(C)c4)c4ccc(Cl)c(-c5c(C)nn(C)c5C)c43)C2=O)c2cc(C(=O)O)n(C)c2c1 [Example 317, (R)-4-(7-Chloro-10-(3-(4-chloro-3,5-dimethylphenoxy)propyl)-4-methyl-1-oxo-6-(1,3,5-trimethyl-1H-pyrazol-4-yl)-3,4-dihydropyrazino[1,2-a]indol-2(1H)-yl)-1,6-dimethyl-1H-indole-2-carboxylic acid]	0.72	< 0.001	–
Cc1nn(C)c(C)c1-c1c(Cl)ccc2c(CCCOc3ccccc3)c3n(c12)[C@H](C)CN(c1cn(C)c2ccc(C(=O)O)cc12)C3=O [Example 408, (R)-3-(7-Chloro-4-methyl-1-oxo-10-(3-phenoxypropyl)-6-(1,3,5-trimethyl-1H-pyrazol-4-yl)-3,4-dihydropyrazino[1,2-a]indol-2(1H)-yl)-1-methyl-1H-indole-5-carboxylic acid]	3.2	0.0022	–
Cc1cc(OCCCc2c3n(c4c(-c5c(C)nn(C)c5C)c(Cl)ccc24)[C@H](C)CN(c2cccc4cc(C(=O)O)n(CC5CCO5)c24)C3=O)cc(C)c1Cl (stereo partly drawn) [Example 374, 7-((R)-7-Chloro-10-(3-(4-chloro-3,5-dimethylphenoxy)propyl)-4-methyl-1-oxo-6-(1,3,5-trimethyl-1H-pyrazol-4-yl)-3,4-dihydropyrazino[1,2-a]indol-2(1H)-yl)-1-(oxetan-2-ylmethyl)-1H-indole-2-carboxylic acid]	1.5	0.0037	–
Cc1cc(OCCCc2c3n(c4c(-c5c(C)ncnc5C)c(Cl)ccc24)[C@H](C)CN(c2cccc4cc(C(=O)O)n(C)c24)C3=O)cc(C)c1Cl [Example 238, 7-[(4R)-7-chloro-10-[3-(4-chloro-3,5-dimethyl-phenoxy)propyl]-6-(4,6-dimethylpyrimidin-5-yl)-4-methyl-1-oxo-3,4-dihydropyrazino[1,2-a]indol-2-yl]-1-methyl-indole-2-carboxylic acid]	0.34	< 0.001	–
Cc1cc(OCCCc2c3n(c4c(-c5c(C)nn(CC6CCN(C)CC6)c5C)c(Cl)ccc24)[C@H](C)CN(c2cn(C)c4c(C)cc(C(=O)O)cc24)C3=O)cc(C)c1Cl [Example 161, (R)-3-(7-chloro-10-(3-(4-chloro-3,5-dimethylphenoxy)propyl)-6-(3,5-dimethyl-1-((1-methylpiperidin-4-yl)methyl)-1H-pyrazol-4-yl)-4-methyl-1-oxo-3,4-dihydropyrazino[1,2-a]indol-2(1H)-yl)-1,7-dimethyl-1H-indole-5-carboxylic acid]	0.48	0.0028	–
Cc1cnc(-c2ccc3c(c2)c(N2C[C@@H](C)n4c(c(CCCOc5cc(C)c(Cl)c(C)c5)c5ccc(Cl)c(-c6c(C)nn(C)c6C)c54)C2=O)cn3C)nc1 [Example 450, (R)-7-Chloro-10-(3-(4-chloro-3,5-dimethylphenoxy)propyl)-4-methyl-2-(1-methyl-5-(5-methylpyrimidin-2-yl)-1H-indol-3-yl)-6-(1,3,5-trimethyl-1H-pyrazol-4-yl)-3,4-dihydropyrazino[1,2-a]indol-1(2H)-one]	1.1	0.0022	–
Cc1cc(OCCCc2c3n(c4c(-c5c(C)nn(C)c5C)c(Cl)ccc24)[C@H](C)CN(c2cn(C)c4ccc([N+](=O)[O-])cc24)C3=O)cc(C)c1Cl [Example 223, (4R)-7-chloro-10-[3-(4-chloro-3,5-dimethyl-phenoxy)propyl]-4-methyl-2-(1-methyl-5-nitro-indol-3-yl)-6-(1,3,5-trimethylpyrazol-4-yl)-3,4-dihydropyrazino[1,2-a]indol-1-one]	5	0.0011	–
Cc1cc(OCCCc2c3n(c4c(-c5c(C)nn(C)c5C)c(Cl)ccc24)[C@H](C)CN(c2nn(C)c4c(C(=O)O)cccc24)C3=O)cc(C)c1Cl [Example 165, (R)-3-(7-Chloro-10-(3-(4-chloro-3,5-dimethylphenoxy)propyl)-4-methyl-1-oxo-6-(1,3,5-trimethyl-1H-pyrazol-4-yl)-3,4-dihydropyrazino[1,2-a]indol-2(1H)-yl)-1-methyl-1H-indazole-7-carboxylic acid]	1.2	0.001	–
COCCOc1ccc(N2C[C@@H](C)n3c(c(CCCOc4cc(C)c(Cl)c(C)c4)c4ccc(Cl)c(-c5c(C)nn(C)c5C)c43)C2=O)c2cc(C(=O)O)n(C)c12 [Example 323, (M, R)-4-(7-Chloro-10-(3-(4-chloro-3,5-dimethylphenoxy)propyl)-4-methyl-1-oxo-6-(1,3,5-trimethyl-1H-pyrazol-4-yl)-3,4-dihydropyrazino[1,2-a]indol-2(1H)-yl)-7-(2-methoxyethoxy)-1-methyl-1H-indole-2-carboxylic acid]	–	< 0.001	1.5
Cc1cc(OCCCc2c3n(c4c(-c5c(C)nn(C)c5C)c(Cl)ccc24)[C@H](C)CN(c2cn(CCN(C)C)c4cc(C(=O)O)ccc24)C3=O)cc(C)c1Cl [Example 340, (R)-3-(7-Chloro-10-(3-(4-chloro-3,5-dimethylphenoxy)propyl)-4-methyl-1-oxo-6-(1,3,5-trimethyl-1H-pyrazol-4-yl)-3,4-dihydropyrazino[1,2-a]indol-2(1H)-yl)-1-(2-(dimethylamino)ethyl)-1H-indole-6-carboxylic acid]	1.8	0.0044	–
CCn1cc(C(=O)O)c2c(N3C[C@@H](C)n4c(c(CCCOc5cc(C)c(Cl)c(C)c5)c5ccc(Cl)c(-c6c(C)nn(C)c6C)c54)C3=O)cccc21 [Example 173, 4-[(4R)-7-chloro-10-[3-(4-chloro-3,5-dimethyl-phenoxy)propyl]-4-methyl-1-oxo-6-(1,3,5-trimethylpyrazol-4-yl)-3,4-dihydropyrazino[1,2-a]indol-2-yl]-1-ethyl-indole-3-carboxylic acid]	3.3	0.0027	–
Cc1cc(OCCCc2c3n(c4c(-c5c(C)nn(C)c5C)c(Cl)ccc24)[C@H](C)CN(c2cccc4cc(C(=O)O)n(Cc5cccnc5)c24)C3=O)cc(C)c1Cl [Example 245, 7-[(4R)-7-chloro-10-[3-(4-chloro-3,5-dimethyl-phenoxy)propyl]-4-methyl-1-oxo-6-(1,3,5-trimethylpyrazol-4-yl)-3,4-dihydropyrazino[1,2-a]indol-2-yl]-1-(3-pyridylmethyl)indole-2-carboxylic acid]	0.9	< 0.001	–
